Experimental data as given in patent US20220041606A1, “POSITIVE ALLOSTERIC MODULATORS OF THE MUSCARINIC ACETYLCHOLINE RECEPTOR M1” (Vanderbilt University, priority 2020, published 2022).

Experiments:
human mAChR M1 [1] = target: T1, human mAChR M1 (Homo sapiens, UniProt P11229); assay: mAChR M1 cell-based functional assay (calcium mobilization), PAM activity: increase in the EC20 acetylcholine response; conditions: CHO-K1 cells expressing hM1; potentiation of EC20 acetylcholine response
T1 construct: host or cells: CHO-K1 cells (ATCC), stably transfected using Lipofectamine2000
T1 sequence (P11229 1-460): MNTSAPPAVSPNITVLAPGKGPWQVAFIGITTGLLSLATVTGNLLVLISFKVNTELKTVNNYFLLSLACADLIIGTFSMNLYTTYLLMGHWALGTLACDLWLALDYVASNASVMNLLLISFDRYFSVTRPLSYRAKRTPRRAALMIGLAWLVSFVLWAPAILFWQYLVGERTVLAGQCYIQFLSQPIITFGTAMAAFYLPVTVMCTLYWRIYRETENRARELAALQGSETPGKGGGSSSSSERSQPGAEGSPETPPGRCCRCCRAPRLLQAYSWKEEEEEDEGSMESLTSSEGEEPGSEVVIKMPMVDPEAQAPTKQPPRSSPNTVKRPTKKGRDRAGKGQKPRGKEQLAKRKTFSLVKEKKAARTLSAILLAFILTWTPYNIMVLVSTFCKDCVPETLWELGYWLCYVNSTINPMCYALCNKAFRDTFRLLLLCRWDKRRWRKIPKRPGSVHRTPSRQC
Procedure, shortened: (§1)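 CHO-K1 cells stably expressing hM1, loaded with Fluo-4 AM; calcium flux read on FDSS 6000. Compound (11-point, 1:3 CRC) added at 4 s, EC20 acetylcholine at 144 s, EC80 at 230 s; agonism from response to compound alone, PAM from increase in EC20 response; Emax relative to acetylcholine maximum, four-parameter fit.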

human mAChR M1 [2] = target: T1, human mAChR M1; assay: mAChR M1 cell-based functional assay (calcium mobilization), agonist activity upon compound addition; conditions: CHO-K1 cells expressing hM1; for EC50: compound alone, before acetylcholine addition; for Emax: relative to the maximum for acetylcholine
Procedure, shortened: as §1

Row | Compound | EC50 (human mAChR M1 [1]) | Emax (human mAChR M1 [1]) | EC50 (human mAChR M1 [2]) | Emax (human mAChR M1 [2])
1 | Cn1cc(-c2ccc(Cn3cc(C(=O)N[C@H]4CCCCC[C@@H]4O)c4nccn4c3=O)c(F)c2)cn1 [Compound B15, 6-(2-fluoro-4-(1-methyl-1H-pyrazol-4-yl)benzyl)-N-((1S,2S)-2-hydroxycycloheptyl)-5-oxo-5,6-dihydroimidazo[1,2-c]pyrimidine-8-carboxamide] | 0.027 µM | 70% | 2.96 µM | 64%
2 | Cn1ccc(-c2ccc(Cn3cc(C(=O)N[C@H]4CCC[C@@H]4O)c4nccnc4c3=O)c(F)c2)n1 [Compound A64, 6-(2-fluoro-4-(1-methyl-1H-pyrazol-3-yl)benzyl)-N-((1S,2S)-2-hydroxycyclopentyl)-5-oxo-5,6-dihydropyrido[3,4-b]pyrazine-8-carboxamide] | ≥ 10 µM | 41% | > 10 µM | 41%
3 | Cn1cc2c(-c3cc(F)c(Cn4cc(C(=O)N[C@H]5CCCCC[C@@H]5O)c5occc5c4=O)c(F)c3)cccc2n1 [Compound D22, 5-(2,6-difluoro-4-(2-methyl-2H-indazol-4-yl)benzyl)-N-((1S,2S)-2-hydroxycycloheptyl)-4-oxo-4,5-dihydrofuro[3,2-c]pyridine-7-carboxamide] | 0.95 µM | 81% | > 10 µM | 9%
4 | Cn1cc(-c2ccc(Cn3cc(C(=O)N[C@H]4CCCC[C@@H]4O)c4occc4c3=O)c(F)c2)cn1 [Compound D13, 5-(2-fluoro-4-(1-methyl-1H-pyrazol-4-yl)benzyl)-N-((1S,2S)-2-hydroxycyclohexyl)-4-oxo-4,5-dihydrofuro[3,2-c]pyridine-7-carboxamide] | 2.12 µM | 81% | > 10 µM | 11%
5 | Cn1cc2c(-c3cc(F)c(Cn4cc(C(=O)N[C@H]5CCCCC[C@@H]5O)c5nccn5c4=O)c(F)c3)cccc2n1 [Compound B19, 6-(2,6-difluoro-4-(2-methyl-2H-indazol-4-yl)benzyl)-N-((1S,2S)-2-hydroxycycloheptyl)-5-oxo-5,6-dihydroimidazo[1,2-c]pyrimidine-8-carboxamide] | 0.47 µM | 42% | 5.24 µM | 51%
6 | Cn1cc(-c2ccc(Cn3cc(C(=O)N[C@H]4CCC[C@@H]4O)c4ncccc4c3=O)c(F)c2)cn1 [Compound A8, 6-(2-fluoro-4-(1-methyl-1H-pyrazol-4-yl)benzyl)-N-((1S,2S)-2-hydroxycyclopentyl)-5-oxo-5,6-dihydro-1,6-naphthyridine-8-carboxamide] | 1.29 µM | 83% | > 10 µM | < 5%
7 | Cn1ccc(-c2ccc(Cn3cc(C(=O)N[C@H]4CCOC[C@@H]4O)c4nccn4c3=O)c(F)c2)n1 [Compound B1, 6-(2-fluoro-4-(1-methyl-1H-pyrazol-3-yl)benzyl)-N-((3R,4S)-3-hydroxytetrahydro-2H-pyran-4-yl)-5-oxo-5,6-dihydroimidazo[1,2-c]pyrimidine-8-carboxamide] | 0.13 µM | 67% | 3 µM | 55%
8 | Cn1cc2c(-c3cc(F)c(Cn4cc(C(=O)N[C@H]5CCOC[C@@H]5O)c5nccn5c4=O)c(F)c3)cccc2n1 [Compound B18, 6-(2,6-difluoro-4-(2-methyl-2H-indazol-4-yl)benzyl)-N-((3R,4S)-3-hydroxytetrahydro-2H-pyran-4-yl)-5-oxo-5,6-dihydroimidazo[1,2-c]pyrimidine-8-carboxamide] | 0.093 µM | 84% | 5.27 µM | 24%
9 | Cc1cnn(C)c1-c1ccc(Cn2cc(C(=O)N[C@H]3CCOC[C@@H]3O)c3nccn3c2=O)c(F)c1 [Compound B34, 6-(4-(1,4-dimethyl-1H-pyrazol-5-yl)-2-fluorobenzyl)-N-((3R,4S)-3-hydroxytetrahydro-2H-pyran-4-yl)-5-oxo-5,6-dihydroimidazo[1,2-c]pyrimidine-8-carboxamide] | ≥ 10 µM | 44% | > 10 µM | < 5%
10 | Cn1cc(-c2ccc(Cn3cc(C(=O)N[C@H]4CCC[C@@H]4O)c4occc4c3=O)c(F)c2)cn1 [Compound D14, 5-(2-fluoro-4-(1-methyl-1H-pyrazol-4-yl)benzyl)-N-((1S,2S)-2-hydroxycyclopentyl)-4-oxo-4,5-dihydrofuro[3,2-c]pyridine-7-carboxamide] | > 10 µM | 51% | > 10 µM | < 5%
11 | O=C(N[C@H]1CCCC[C@@H]1O)c1cn(Cc2ccc(-n3cccn3)cc2)c(=O)c2nccnc12 [Compound A53, 6-(4-(1H-pyrazol-1-yl)benzyl)-N-((1S,2S)-2-hydroxycyclohexyl)-5-oxo-5,6-dihydropyrido[3,4-b]pyrazine-8-carboxamide] | 9.64 µM | 48% | > 10 µM | < 5%
12 | Cn1cc(-c2ccc(Cn3cc(C(=O)N[C@H]4CCCCC[C@@H]4O)c4ncccc4c3=O)c(F)c2)cn1 [Compound A24, 6-(2-fluoro-4-(1-methyl-1H-pyrazol-4-yl)benzyl)-N-((1S,2S)-2-hydroxycycloheptyl)-5-oxo-5,6-dihydro-1,6-naphthyridine-8-carboxamide] | 0.35 µM | 69% | 6.12 µM | 16%
13 | Cn1ccc(-c2ccc(Cn3cc(C(=O)N[C@H]4CCCC[C@@H]4O)c4nccn4c3=O)c(F)c2)n1 [Compound B2, 6-(2-fluoro-4-(1-methyl-1H-pyrazol-3-yl)benzyl)-N-((1S,2S)-2-hydroxycyclohexyl)-5-oxo-5,6-dihydroimidazo[1,2-c]pyrimidine-8-carboxamide] | 0.096 µM | 68% | 3.7 µM | 60%
14 | Cc1cc(-c2ccc(Cn3cc(C(=O)N[C@H]4CCC[C@@H]4O)c4ncccc4c3=O)c(F)c2)ccn1 [Compound A28, 6-(2-fluoro-4-(2-methylpyridin-4-yl)benzyl)-N-((1S,2S)-2-hydroxycyclopentyl)-5-oxo-5,6-dihydro-1,6-naphthyridine-8-carboxamide] | 1.14 µM | 54% | > 10 µM | < 5%
15 | Cn1cc(-c2ccc(Cn3cc(C(=O)N[C@H]4CCCC[C@@H]4O)c4ncccc4c3=O)cc2)cn1 [Compound A86, N-((1S,2S)-2-hydroxycyclohexyl)-6-(4-(1-methyl-1H-pyrazol-4-yl)benzyl)-5-oxo-5,6-dihydro-1,6-naphthyridine-8-carboxamide] | 0.37 µM | 52% | > 10 µM | < 5%
16 | Cn1cc(-c2ccc(Cn3cc(C(=O)N[C@H]4CCOC[C@@H]4O)c4sccc4c3=O)c(F)c2)cn1 [Compound D29, 5-(2-fluoro-4-(1-methyl-1H-pyrazol-4-yl)benzyl)-N-((3R,4S)-3-hydroxytetrahydro-2H-pyran-4-yl)-4-oxo-4,5-dihydrothieno[3,2-c]pyridine-7-carboxamide] | > 10 µM | 37% | > 10 µM | < 5%
17 | O=C(N[C@H]1CCOC[C@@H]1O)c1cn(Cc2ccc(-n3cccn3)cc2)c(=O)c2nccnc12 [Compound A56, 6-(4-(1H-pyrazol-1-yl)benzyl)-N-((3R,4S)-3-hydroxytetrahydro-2H-pyran-4-yl)-5-oxo-5,6-dihydropyrido[3,4-b]pyrazine-8-carboxamide] | ≥ 10 µM | 61% | > 10 µM | < 5%
